In patent US20090028925A1, “Novel Phosphinic Acid-Containing Thyromimetics” (priority 2005, published 2009):

How the values were obtained:
[1] = molecular target: T1, human thyroid hormone receptors TRα1 (Homo sapiens, UniProt P10827); assay: Receptor binding to TRα1 (gel filtration and scintillation proximity assay, labeled T3); conditions: SPA data; read-out: Ki TRα
T1 construct: made in house; host or cells: Sf9 insect cells (baculovirus)
T1 sequence (P10827 1-410 isoform P10827-2): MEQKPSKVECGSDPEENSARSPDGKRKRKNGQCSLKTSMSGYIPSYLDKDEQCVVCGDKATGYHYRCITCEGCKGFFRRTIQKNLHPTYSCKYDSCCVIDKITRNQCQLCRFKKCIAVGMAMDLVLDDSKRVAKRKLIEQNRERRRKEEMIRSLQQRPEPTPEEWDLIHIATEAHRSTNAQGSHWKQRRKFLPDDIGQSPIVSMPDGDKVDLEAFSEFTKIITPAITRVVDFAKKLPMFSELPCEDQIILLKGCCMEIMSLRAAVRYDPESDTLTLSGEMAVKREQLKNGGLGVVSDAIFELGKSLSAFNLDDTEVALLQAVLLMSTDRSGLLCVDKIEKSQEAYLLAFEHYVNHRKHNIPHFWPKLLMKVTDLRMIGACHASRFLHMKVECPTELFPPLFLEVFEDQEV
T1 sequence (P19793 1-462 partner): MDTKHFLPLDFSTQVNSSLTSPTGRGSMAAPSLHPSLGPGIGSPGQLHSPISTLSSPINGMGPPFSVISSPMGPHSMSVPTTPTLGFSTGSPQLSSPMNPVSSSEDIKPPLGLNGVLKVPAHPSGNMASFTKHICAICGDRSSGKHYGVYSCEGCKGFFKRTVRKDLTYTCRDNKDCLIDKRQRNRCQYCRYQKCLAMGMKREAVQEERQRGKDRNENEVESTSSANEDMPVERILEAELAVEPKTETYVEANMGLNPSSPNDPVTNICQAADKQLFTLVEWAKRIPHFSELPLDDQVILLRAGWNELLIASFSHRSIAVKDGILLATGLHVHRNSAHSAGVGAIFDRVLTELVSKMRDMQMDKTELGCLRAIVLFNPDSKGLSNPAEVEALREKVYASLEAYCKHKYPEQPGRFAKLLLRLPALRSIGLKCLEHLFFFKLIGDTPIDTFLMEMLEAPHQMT

[2] = molecular target: T2, human thyroid hormone receptors TRβ1 (Homo sapiens, UniProt P10828); assay: Receptor binding to TRβ1 (gel filtration and scintillation proximity assay, labeled T3); conditions: SPA data; read-out: Ki TRβ
T2 construct: made in house; host or cells: Sf9 insect cells (baculovirus)
T2 sequence (P10828 1-461): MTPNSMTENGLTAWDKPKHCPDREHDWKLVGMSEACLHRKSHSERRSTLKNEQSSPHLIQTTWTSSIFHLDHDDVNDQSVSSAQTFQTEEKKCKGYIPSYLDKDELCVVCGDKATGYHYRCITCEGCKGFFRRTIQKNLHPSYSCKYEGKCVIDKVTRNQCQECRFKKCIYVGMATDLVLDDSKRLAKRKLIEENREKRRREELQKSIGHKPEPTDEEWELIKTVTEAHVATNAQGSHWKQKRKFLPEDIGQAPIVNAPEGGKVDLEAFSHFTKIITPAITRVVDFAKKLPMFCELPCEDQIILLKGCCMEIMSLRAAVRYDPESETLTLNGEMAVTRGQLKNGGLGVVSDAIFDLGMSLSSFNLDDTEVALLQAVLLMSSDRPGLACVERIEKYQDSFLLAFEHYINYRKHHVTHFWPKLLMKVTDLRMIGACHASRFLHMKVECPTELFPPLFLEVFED
T2 sequence (P19793 1-462 partner): T1 sequence (P19793 1-462 partner)

[3] = parameters: species or system rats; conditions: in vivo, po
Protocol: The oral bioavailability (OBAV) of Compound 12-1, a bis POM prodrug of Compound 7, was estimated by comparison of the dose-normalized area under the curve (AUC) of the plasma concentration-time profile of Compound 7 following IV and PO administration of Compound 7 and Compound 12-1, respectively, to normal rats.
Method: Groups of non-fasted male SD rats were administered either 5 mg/kg of Compound 7 by IV bolus or 20 mg/kg of Compound 12-1 by oral gavage. Prior to drug administration, the rats were catheterized at the tail artery to facilitate blood collection. Plasma samples were obtained at pre-specified time points following dosing, extracted with 1.5 volumes of methanol, and then assayed by an LC-UV method using a C18 column eluted with a gradient of 20% to 45% v/v acetonitrile in a potassium phosphate buffer pH 6.2 over 15 min with UV absorbance monitoring at 280 nm. The AUC values were determined noncompartmentally from the plasma concentration-time plots by trapezoidal summation to the last measurable time point.
Plasma levels of compound were analyzed by HPLC and the AUCs for the i.v. dose of 5 mg/kg and the p.o. dose of 20 mg/kg were compared. The maximum OBAV for Compound 19-2 was 0.003%. Typically, compounds that are taken forward as an oral drug candidate have OBAV values of at least 15-20%, when tested in an animal model. This minimal requirement for OBAV in a genetically homogenous model system insures that exposure can be accurately monitored when humans are treated with the compound. Furthermore, in a genetically variable background such as humans, the variability for a compound with low OBAV in genetically homogenous model systems, can be widely variable, leading some subjects to have much higher than anticipated exposure, while other subjects have no exposure.

[4] = tested on: CYP3A (cytochrome P450-3A (CYP3A4)); assay: Prodrug activation in rat liver microsomes; assay type: in vitro ADME; conditions: liver microsomes from dexamethasone-treated rats; dexamethasone treated rat microsomes, formation of Compound 7
Source text: (§1) The purpose of these studies was to determine the kinetics of activation of prodrugs of thyromimetics in microsomal preparations. Microsomes contain the P450 enzyme that is required for the activation of many of the prodrugs prepared. The Km, Vmax, and intrinsic clearance values determined are measures of prodrug affinity for the microsomal enzymes, the rate at which the prodrug is activated, and the catalytic efficiency with which the prodrug is activated, respectively.
(§2) Methods: Activation of prodrugs by dexamethasone treated rat hepatocyte microsomes. Microsomes were isolated by standard differential centrifugation methods from dexamethasone-treated rats. The treatment is to increase cytochrome P450-3A (CYP3A4) activity. Induction of CYP3A4 was confirmed by an increase in testosterone hydroxylation.
(§3) Various concentrations of HepDirect™ Compound 7 were incubated with rat hepatocytes microsomes. Compound 7 formation was analyzed by HPLC using UV-Vis detection. Kinetic parameters (Vmax and Km) were calculated from the transformed data and the intrinsic clearance calculated from the kinetic parameters.

[5] = Prodrug activation in rat liver microsomes; assay type: in vitro ADME; conditions: for Vmax: dexamethasone treated rat microsomes, formation of Compound 7; for microsomal CLint: rat, liver microsomes from dexamethasone-treated rats, intrinsic clearance calculated from the kinetic parameters
Source text: as §1, §2, §3

[6] = effects on cholesterol and TSH at the same or not pharmacologically different doses; cited from earlier work

In the case of Cc1cc(OCP(=O)(OCOC(=O)C(C)(C)C)OCOC(=O)C(C)(C)C)cc(C)c1Cc1ccc(O)c(C(C)C)c1 [Compound 12-1, di(pivaloyloxymethyl) [3,5-Dimethyl-4-(4′-hydroxy-3′-iso-propylbenzyl)phenoxy]methylphosphonate], the Ki [1] is reported as 1670 nM, the Ki [2] is reported as 662 nM and the “absorption in the rat” value [3] is reported as “adequately absorbed”.
In the case of Cc1cc(OC[P@@]2(=O)OCC[C@@H](c3cccc(Br)c3)O2)cc(C)c1Cc1ccc(O)c(C(C)C)c1 [Compound 13-2-cis, 2-[(3,5-dimethyl-4-(4′-hydroxy-3′-iso-propylbenzyl)phenoxy)methyl]-4-(3-bromophenyl)-2-oxo-2λ^5-[1,3,2]-diox aphosphonane], the Km [4] is reported as 8 µM, the “Vmax” value [5] is reported as 694 pmol/min/mg and the microsomal CLint [5] is reported as 86 µL/min/mg. For the same molecule, the Ki [1] was 488 nM and the Ki [2] was 419 nM.
In the case of Cc1cc(OC[P@@]2(=O)OCC[C@@H](c3cccc(F)c3)O2)cc(C)c1Cc1ccc(O)c(C(C)C)c1 [Compound 13-3-cis], the Km [4] is reported as 46 µM, the “Vmax” value [5] is reported as 2118 pmol/min/mg and the microsomal CLint [5] is reported as 46 µL/min/mg. For the same molecule, the Ki [1] was 2840 nM and the Ki [2] was 3430 nM.
For Cc1cc(OC[P@@]2(=O)OCC[C@@H](c3cccnc3)O2)cc(C)c1Cc1ccc(O)c(C(C)C)c1 [Compound 13-4-cis, 2-[(3,5-dimethyl-4-(4′-hydroxy-3′-iso-propylbenzyl)phenoxy)methyl]-4-(pyrid-3-yl)-2-oxo-2λ^5-[1,3,2]-dioxaphosphonane], the Km [4] was 100 µM, the “Vmax” value [5] was 2983 pmol/min/mg and the microsomal CLint [5] was 30 µL/min/mg. It also gave a Ki [1] of 5530 nM and a Ki [2] of 1520 nM.
In the case of Cc1cc(OC[P@@]2(=O)OCC[C@@H](c3ccncc3)O2)cc(C)c1Cc1ccc(O)c(C(C)C)c1 [Compound 13-5-cis, 2-[(3,5-dimethyl-4-(4′-hydroxy-3′-iso-propylbenzyl)phenoxy)methyl]-4-(pyrid-4-yl)-2-oxo-2λ^5-[1,3,2]-dioxaphosphonane], the Km [4] is reported as 113 µM, the “Vmax” value [5] is reported as 3266 pmol/min/mg and the microsomal CLint [5] is reported as 29 µL/min/mg. It also gave a Ki [1] of 4430 nM and a Ki [2] of 1010 nM.
For Cc1cc(OC[P@]2(=O)OCC[C@H](c3ccc(Cl)cc3)O2)cc(C)c1Cc1ccc(O)c(C(C)C)c1 [Compound 13-6-cis, 2-[(3,5-dimethyl-4-(4′-hydroxy-3′-iso-propylbenzyl)phenoxy)methyl]-4-(4-chlorophenyl)-2-oxo-2λ^5-[1,3,2]-dioxaphosphonane], the Km [4] was 10 µM, the “Vmax” value [5] was 598 pmol/min/mg and the microsomal CLint [5] was 62 µL/min/mg. For the same molecule, the Ki [1] was 4710 nM and the Ki [2] was 3590 nM.
For CC(C)c1cc(Oc2c(Br)cc(CP(=O)(O)O)cc2Br)ccc1O [Compound 19-2, [3,5-dibromo-4-(4′-hydroxy-3′-iso-propylphenoxy)]benzylphosphonic Acid], the Ki [1] was 343 nM, the Ki [2] was 20 nM and the “absorption in the rat” value [3] was “not adequately absorbed”.
For Cc1cc(OCC(=O)O)cc(C)c1Cc1ccc(O)c(C(C)C)c1 [GC-1, [4-[[4-hydroxy-3-(1-methylethyl)phenyl]methyl]-3,5-dimethylphenoxy]acetic acid], the TSH levels [6] is listed as “dose-dependently lower” and the cholesterol levels [6] is listed as “dose-dependently lower”.
